The text below walks through data of US11197859B2 (AUTIFONY THERAPEUTICS LIMITED, priority 2010, dated 2021).

The structures appear in SMILES notation.

The target in the test is T1, human Kv3.2 channels (hKv3.2) (Homo sapiens, UniProt Q96PR1).
T1 construct: expressed in transfected cells
T1 sequence (Q96PR1 1-638): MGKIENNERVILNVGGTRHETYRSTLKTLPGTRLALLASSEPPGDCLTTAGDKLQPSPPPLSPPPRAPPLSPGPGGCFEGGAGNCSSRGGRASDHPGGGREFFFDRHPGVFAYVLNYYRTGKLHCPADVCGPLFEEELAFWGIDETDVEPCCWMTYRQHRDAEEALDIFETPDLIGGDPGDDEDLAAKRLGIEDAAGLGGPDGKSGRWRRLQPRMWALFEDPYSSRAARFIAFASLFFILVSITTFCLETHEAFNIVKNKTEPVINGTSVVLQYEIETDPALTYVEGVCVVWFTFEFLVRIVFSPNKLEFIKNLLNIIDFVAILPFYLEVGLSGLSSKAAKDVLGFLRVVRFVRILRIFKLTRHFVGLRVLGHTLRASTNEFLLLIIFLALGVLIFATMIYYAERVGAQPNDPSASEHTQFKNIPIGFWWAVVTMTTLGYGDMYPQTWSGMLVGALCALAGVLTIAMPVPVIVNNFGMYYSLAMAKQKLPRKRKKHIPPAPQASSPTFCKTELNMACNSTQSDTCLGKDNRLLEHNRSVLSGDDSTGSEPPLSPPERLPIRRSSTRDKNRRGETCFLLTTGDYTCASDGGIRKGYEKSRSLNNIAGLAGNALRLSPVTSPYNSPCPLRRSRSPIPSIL
In words: IonWorks Quattro electrophysiology, hKv3.2 currents, activation time constant (Tauact). In kind it is cell-based. To be noted: hKv3.2, -15 mV pulse. Here is the method: The ability of the compounds of the disclosure to modulate the voltage-gated potassium channel subtypes Kv3.2/3.1 may be determined using the following assay.
To assess compound effects on human Kv3.2 channels (hKv3.2), a stable cell line expressing hKv3.2 was created by transfecting Chinese Hamster Ovary (CHO)-K1 cells with a pCIH5-hKv3.2 vector. Cells were cultured in DMEM/F12 medium supplemented by 10% Foetal Bovine Serum, 1× non-essential amino acids (Invitrogen) and 500 ug/ml of Hygromycin-B (Invitrogen). Cells were grown and maintained at 37° C. in a humidified environment containing 5% CO2 in air.
The day of the experiment, cells were removed from the incubator and the culture medium removed. Cells were washed with 5 ml of Dulbecco's PBS (DPBS) calcium and magnesium free and detached by the addition of 3 ml Versene (Invitrogen, Italy) followed by a brief incubation at 37° C. for 5 minutes. The flask was tapped to dislodge cells and 10 ml of DPBS containing calcium and magnesium was added to prepare a cell suspension. The cell suspension was then placed into a 15 ml centrifuge tube and centrifuged for 2 min at 1200 rpm. After centrifugation, the supernatant was removed and the cell pellet re-suspended in 4 ml of DPBS containing calcium and magnesium using a 5 ml pipette to break up the pellet. Cell suspension volume was then corrected to give a cell concentration for the assay of approximately 3 million cells per ml.
Experiments were conducted at room temperature using IonWorks Quattro™ planar array electrophysiology technology (Molecular Devices Corp.) with PatchPlate™ PPC. Stimulation protocols and data acquisition were carried out using a microcomputer (Dell Pentium 4). Planar electrode hole resistances(Rp) were determined by applying a 10 mV voltage step across each well. These measurements were performed before cell addition. […] Following this, amphotericin-B solution was added to the intracellular face of the electrode to achieve intracellular access. Cells were held at −70 mV. Leak subtraction was conducted in all experiments by applying 50 ms hyperpolarizing (10 mV) prepulses to evoke leak currents followed by a 20 ms period at the holding potential before test pulses. From the holding potential of −70 mV, a first test pulse to −15 mV was applied for 100 ms and following a further 100 ms at −70 mV, a second pulse to 40 mV was applied for 50 ms. Cells were then maintained for a further 100 ms at −100 mV and then a voltage ramp from −100 mV to 40 mV was applied over 200 ms. In all experiments, the test pulses protocol was performed in the absence (pre-read) and presence (post-read) of the test compound. Pre- and post-reads were separated by the compound addition followed by a 3 minute incubation.
The intracellular solution contained the following (in mM): K-gluconate 100, KCl 54, MgCl2 3.2, HEPES 5, adjusted to pH 7.3 with KOH. Amphotericin-B solution was prepared as 50 mg/ml stock solution in DMSO and diluted to a final working concentration of 0.1 mg/ml in intracellular solution.
The final assay dilution was 200 and the final compound concentrations were in the range 50 μM to 50 nM.
The recordings were analysed and filtered using both seal resistance (>20 MΩ) and peak current amplitude (>500 pA at the voltage step of 40 mV) in the absence of compound to eliminate unsuitable cells from further analysis. Kv3 channel-mediated outward currents were measured determined from the mean amplitude of the current over the final 10 ms of the −15 mV voltage pulse minus the mean baseline current at −70 mV over a 10 ms period just prior to the −15 mV step. This Kv3 channel currents following addition of the test compound were then compared with the currents recorded prior to compound addition. […] The normalised data were analysed using ActivityBase or Excel software.
(In general: In patch-clamp work, channel activity is measured electrically.)

[1] abbreviates: compound 0.4 μM (concentration giving ~0.3 nA current).
Where [2] appears, read: compound 1.6 μM (concentration giving ~0.3 nA current).
[3] abbreviates: compound 3.1 μM (concentration giving ~0.3 nA current).
[4] abbreviates: compound 0.8 μM (concentration giving ~0.3 nA current).

With `CC[C@H]1NC(=O)N(c2ccc(Oc3ccc(C)c4c3C3(CC3)CO4)nc2)C1=O` [Example 62, (5R)-5-ethyl-3-[6-(7-methylspiro[2H-benzofuran-3,1′-cyclopropane]-4-yl)oxy-3-pyridyl]imidazolidine-2,4-dione], the “Tauact mean” value under setting [1] was determined as 34.8 ms.

With `CC[C@@]1(C)NC(=O)N(c2cnc(Oc3ccc(C)c4c3C3(CC3)CO4)nc2)C1=O` [Example 51, (5R)-5-ethyl-5-methyl-3-[2-(7-methylspiro[2H-benzofuran-3,1′-cyclopropane]-4-yl)oxypyrimidin-5-yl]imidazolidine-2,4-dione], under setting [2], the “Tauact mean” value came to 21.3 ms.

Consider `CCc1cc(Oc2ccc(N3C(=O)N[C@H](CC)C3=O)cn2)ccc1C#N`, for which the “Tauact mean” value under setting [3] is listed as 8.2 ms.

Take `CC[C@H]1NC(=O)N(c2cnc(Oc3ccc(C)c4c3C3(CC3)CO4)nc2)C1=O` [Example 61, (5R)-5-ethyl-3-[2-(7-methylspiro[2H-benzofuran-3,1′-cyclopropane]-4-yl)oxypyrimidin-5-yl]imidazolidine-2,4-dione]: the “Tauact mean” value under setting [4] is 31.5 ms.

For `CC1(C)NC(=O)N(c2ccc(Oc3cccc4c3C3(CC3)CO4)nc2)C1=O` [Example 16, 5,5-dimethyl-3-[6-(spiro[1-benzofuran-3,1′-cyclopropan]-4-yloxy)-3-pyridinyl]-2,4-imidazolidinedione], the “Tauact mean” value under setting [1] is 19.3 ms.

On to `CC[C@H]1NC(=O)N(c2cnc(Oc3ccc(C)c4c3C(C)(C)CO4)nc2)C1=O` [Example 64, (5R)-5-ethyl-3-{2-[(3,3,7-trimethyl-2,3-dihydro-1-benzofuran-4-yl)oxy]-5-pyrimidinyl}-2,4-imidazolidinedione], for which the “Tauact mean” value under setting [2] was 25.0 ms.

Take `CC[C@H]1NC(=O)N(c2ccc(Oc3ccc(C#N)c(OC(C)C)c3)nc2)C1=O` [RE8, 4-({5-[(4R)-4-ethyl-2,5-dioxo-1-imidazolidinyl]-2-pyridinyl}oxy)-2-[(1-methylethyl)oxy]benzonitrile]: the “Tauact mean” value under setting [3] is recorded as 9.7 ms.

As to `CC[C@H]1NC(=O)N(c2ccc(Oc3ccc(C#N)cc3C(C)(C)C)nc2)C1=O` [RE3, 3-(1,1-dimethylethyl)-4-({5-[(4R)-4-ethyl-2,5-dioxo-1-imidazolidinyl]-2-pyridinyl}oxy)benzonitrile], the “Tauact mean” value (compound 0.2 μM (concentration giving ~0.3 nA current)) is 23.0 ms.

For the compound `CC[C@H]1NC(=O)N(c2ccc(Oc3ccc(C)c4c3C(C)(C)CO4)nc2)C1=O` [Example 63, (5R)-5-ethyl-3-{6-[(3,3,7-trimethyl-2,3-dihydro-1-benzofuran-4-yl)oxy]-3-pyridinyl}-2,4-imidazolidinedione], the “Tauact mean” value under setting [1] is 28.0 ms.

On to `CC[C@H]1NC(=O)N(c2ccc(Oc3ccc(C#N)c(OC(F)(F)F)c3)nc2)C1=O` [RE7, 4-({5-[(4R)-4-ethyl-2,5-dioxo-1-imidazolidinyl]-2-pyridinyl}oxy)-2-[(trifluoromethyl)oxy]benzonitrile], for which, under setting [3], the “Tauact mean” value came out at 10.4 ms.

Turning to `CC[C@H]1NC(=O)N(c2ccc(Oc3ccc(C#N)cc3C3CC3)nc2)C1=O` [RE5, 3-cyclopropyl-4-({5-[(4R)-4-ethyl-2,5-dioxo-1-imidazolidinyl]-2-pyridinyl}oxy)benzonitrile], the “Tauact mean” value under setting [3] worked out at 13.0 ms.

For `CC1COc2cccc(Oc3ccc(N4C(=O)NC(C)(C)C4=O)cn3)c2C1` (single isomer, unassigned) [Example 25, 5,5-dimethyl-3-{6-[(3-methyl-3,4-dihydro-2H-chromen-5-yl)oxy]-3-pyridinyl}-2,4-imidazolidinedione], for the setting “compound 6.25 μM (concentration giving ~0.3 nA current)”, the “Tauact mean” value amounted to 7.87 ms.

As for `CC[C@H]1NC(=O)N(c2ccc(Oc3ccc(C#N)c(C(C)C)c3)nc2)C1=O` [RE4, 4-({5-[(4R)-4-ethyl-2,5-dioxo-1-imidazolidinyl]-2-pyridinyl}oxy)-2-(1-methylethyl)benzonitrile], the “Tauact mean” value under setting [4] came to 9.2 ms.

In the case of `CC[C@@]1(C)NC(=O)N(c2ccc(Oc3ccc(C)c4c3C3(CC3)CO4)nc2)C1=O` [Example 65, (5R)-5-ethyl-5-methyl-3-[6-(7-methylspiro[2H-benzofuran-3,1′-cyclopropane]-4-yl)oxy-3-pyridyl]imidazolidine-2,4-dione], under setting [4], the “Tauact mean” value is on record as 24.0 ms.
